According to PubChem BioAssay (NCI):
Several values for one entry are separate records, joined by “and”; a condition that tells them apart may be missing. Equal entries are not always repeated.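 Values below derive from 48-hour exposures of cells grown in 96-well plates, with endpoints linearly interpolated between the two concentrations bracketing the appropriate inhibition level. GI50: concentration for 50% inhibition of growth. TGI: total growth inhibition.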

Tests used:
Assay in all cases: NCI tumour cell line growth inhibition, 48 h
786-0 renal = tested on: 786-0 renal
ACHN renal = tested on: ACHN renal
BT-549 breast = tested on: BT-549 breast
CAKI-1 renal = tested on: CAKI-1 renal
DMS 114 small cell lung = tested on: DMS 114 small cell lung
DU-145 prostate = tested on: DU-145 prostate
HCT-116 colon = tested on: HCT-116 colon
HOP-18 NSCLC = tested on: HOP-18 NSCLC
M14 melanoma = tested on: M14 melanoma
MALME-3M melanoma = tested on: MALME-3M melanoma
MDA-MB-231 breast = tested on: MDA-MB-231 breast
MDA-MB-435 = tested on: MDA-MB-435
MDA-N = tested on: MDA-N
MOLT-4 leukemia = tested on: MOLT-4 leukemia
NCI-H226 lung = tested on: NCI-H226 lung
NCI-H23 lung = tested on: NCI-H23 lung
P388 leukemia = tested on: P388 leukemia
P388/ADR leukemia = tested on: P388/ADR leukemia
PC-3 prostate = tested on: PC-3 prostate
SF-539 CNS = tested on: SF-539 CNS
SNB-19 CNS = tested on: SNB-19 CNS
SR leukemia = tested on: SR leukemia
T-47D breast = tested on: T-47D breast
TK-10 renal = tested on: TK-10 renal
UO-31 renal = tested on: UO-31 renal
A498 renal = tested on: A498 renal
A549 NSCLC = tested on: A549 NSCLC
DLD-1 colon = tested on: DLD-1 colon
EKVX NSCLC = tested on: EKVX NSCLC
HOP-92 NSCLC = tested on: HOP-92 NSCLC
HS 578T breast = tested on: HS 578T breast
KM20L2 colon = tested on: KM20L2 colon
MCF7 breast = tested on: MCF7 breast
NCI-H522 lung = tested on: NCI-H522 lung
OVCAR-4 ovarian = tested on: OVCAR-4 ovarian
OVCAR-5 ovarian = tested on: OVCAR-5 ovarian
SF-268 CNS = tested on: SF-268 CNS
SK-MEL-2 melanoma = tested on: SK-MEL-2 melanoma
SK-MEL-28 melanoma = tested on: SK-MEL-28 melanoma
SN12C renal = tested on: SN12C renal
SNB-78 CNS = tested on: SNB-78 CNS
SW-620 colon = tested on: SW-620 colon

## C[C@@H]1O[C@@H](O[C@H]2CC[C@]3(C=O)[C@H]4CC[C@]5(C)[C@@H](c6ccc(=O)oc6)CC[C@]5(O)[C@@H]4CC[C@]3(O)C2)[C@H](O)[C@H](O)[C@H]1O[C@@H]1O[C@H](CO)[C@@H](O)[C@H](O)[C@H]1O
786-0 renal
  TGI: 16.4 nM and 17.4 nM
ACHN renal
  TGI: 19.5 nM and 23.3 nM
BT-549 breast
  GI50: 25.2 nM
  TGI: 28.5 nM and 70.1 nM
CAKI-1 renal
  GI50: 37.5 nM
  TGI: 32.2 nM and 25.1 nM and 37.9 nM
DMS 114 small cell lung
  GI50: < 0.000375 nM
DU-145 prostate
  GI50: 12.9 nM
  TGI: 8.37 nM and 42.4 nM
HCT-116 colon
  TGI: 35.8 nM and 19.4 nM
HOP-18 NSCLC
  TGI: 21.9 nM
M14 melanoma
  GI50: 30.4 nM
  TGI: 48.3 nM and 125 nM
MALME-3M melanoma
  GI50: 14.2 nM and 20.6 nM
  TGI: 34.3 nM and 47.7 nM
MDA-MB-231 breast
  TGI: 129 nM
MDA-MB-435
  GI50: 26.1 nM
  TGI: 34.4 nM and 62 nM
MDA-N
  GI50: 17.3 nM
  TGI: 59.5 nM and 33.3 nM
MOLT-4 leukemia
  TGI: 14.4 nM and 70.8 nM
NCI-H226 lung
  GI50: 40.9 nM
  TGI: 57.6 nM and 43.7 nM and 93.3 nM
NCI-H23 lung
  GI50: < 0.000375 nM
P388 leukemia
  TGI: 176000 nM
P388/ADR leukemia
  TGI: 355000 nM
PC-3 prostate
  GI50: 17.8 nM
  TGI: 28.5 nM and 33.6 nM
SF-539 CNS
  TGI: 21 nM and 24.5 nM
SNB-19 CNS
  GI50: 30.1 nM and 37.5 nM
  TGI: 141 nM and 118 nM and 64.3 nM
SR leukemia
  TGI: 868 nM
T-47D breast
  GI50: 24 nM
  TGI: 46.5 nM and 56.4 nM
TK-10 renal
  GI50: 13.2 nM
  TGI: 16 nM and 56.9 nM
UO-31 renal
  GI50: 37.5 nM
  TGI: 51.2 nM and 47.9 nM

## C=C1CC2CC[C@@]34CC5O[C@@H]6C(O[C@H]7CC[C@H](CC(=O)OC8C(C)C9OC%10C[C@]%11(C[C@@H]%12O[C@]%13(CC(C)[C@@H]%14O[C@H](C(O)CC(O)CO)C[C@@H]%14O%13)CC(C)[C@@H]%12O%11)OC%10CC9O[C@H]8C[C@H]8OC(CC[C@@H]1O2)C[C@@H](C)C8=C)OC7[C@@H]6O3)[C@H]5O4 (stereo partly specified)
786-0 renal
  TGI: 1220 nM
A498 renal
  TGI: 32.1 nM and 6.79 nM
A549 NSCLC
  TGI: 2550 nM and 1650 nM
ACHN renal
  TGI: 1280 nM
BT-549 breast
  TGI: 2690 nM
CAKI-1 renal
  TGI: 464 nM and 1540 nM
DLD-1 colon
  GI50: 0.255 nM
  TGI: 2550 nM
DMS 114 small cell lung
  GI50: 0.255 nM
  TGI: 5.54 nM and 8.56 nM
EKVX NSCLC
  TGI: 2850 nM
HOP-92 NSCLC
  GI50: 15.6 nM and 6.03 nM
HS 578T breast
  GI50: 0.182 nM
KM20L2 colon
  TGI: 1.67 nM
MCF7 breast
  TGI: 2550 nM and 21400 nM
MDA-MB-231 breast
  GI50: 2.67 nM
MDA-MB-435
  TGI: 0.511 nM
MDA-N
  GI50: 0.0269 nM and 0.151 nM
  TGI: 0.756 nM and 2.65 nM
NCI-H226 lung
  TGI: 7.09 nM and 7.25 nM and 21.7 nM
NCI-H522 lung
  TGI: 0.7 nM and 0.489 nM and 0.304 nM
OVCAR-4 ovarian
  TGI: 838 nM and 2420 nM
OVCAR-5 ovarian
  TGI: 7.64 nM
P388/ADR leukemia
  TGI: 8.46 nM
PC-3 prostate
  GI50: 0.886 nM
SF-268 CNS
  TGI: 2550 nM and 1470 nM
SF-539 CNS
  TGI: 4.2 nM and 3.72 nM and 1.3 nM
SK-MEL-2 melanoma
  TGI: 9.31 nM and 4.34 nM
SK-MEL-28 melanoma
  GI50: 1.01 nM
SN12C renal
  TGI: 2550 nM and 6410 nM
SNB-19 CNS
  TGI: 1820 nM
SNB-78 CNS
  GI50: 0.255 nM
  TGI: 2550 nM
SR leukemia
  GI50: 0.0153 nM
SW-620 colon
  TGI: 2550 nM
T-47D breast
  TGI: 5320 nM
TK-10 renal
  TGI: 16800 nM
UO-31 renal
  TGI: 2460 nM
